According to PubChem BioAssay (NCI):
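Protocol summary: plate cells (96-well), add compound at 5 concentrations, incubate 48 h, interpolate endpoints linearly. TGI marks complete inhibition of growth.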

Key:
Assay in all cases: NCI anticancer screen, dose series, 48 h
MDA-MB-231 breast = tested on: MDA-MB-231 breast
SK-MEL-2 melanoma = tested on: SK-MEL-2 melanoma
HS 578T breast = tested on: HS 578T breast
SK-OV-3 ovarian = tested on: SK-OV-3 ovarian
SNB-75 CNS = tested on: SNB-75 CNS
HCT-15 colon = tested on: HCT-15 colon
SW-620 colon = tested on: SW-620 colon
IGROV1 ovarian = tested on: IGROV1 ovarian
HCC-2998 colon = tested on: HCC-2998 colon
SK-MEL-5 melanoma = tested on: SK-MEL-5 melanoma
U251 CNS = tested on: U251 CNS
K-562 leukemia = tested on: K-562 leukemia
OVCAR-3 ovarian = tested on: OVCAR-3 ovarian
RPMI-8226 leukemia = tested on: RPMI-8226 leukemia
MOLT-4 leukemia = tested on: MOLT-4 leukemia
A549 NSCLC = tested on: A549 NSCLC
NCI/ADR-RES ovarian = tested on: NCI/ADR-RES ovarian
SF-539 CNS = tested on: SF-539 CNS
OVCAR-4 ovarian = tested on: OVCAR-4 ovarian
OVCAR-8 ovarian = tested on: OVCAR-8 ovarian

Measured: TGI

CCOC(=O)C1=NN(c2ccccc2)C2=CC(C)=NN(C)C(=S)N21
> 100 µM: all assays above
